Source: ChEMBL document CHEMBL4828724 (Eur J Med Chem, 2021)
Blank lines part the entries; values can stand above or below the compound they belong to.

What was measured:
[1] = Metabolic stability in monkey liver microsomes assessed as intrinsic clearance at 1 uM in the presence of NADPH measured for 60 mins by LC-MS/MS analysis; format: ADME, Macaca mulatta, Microsome; details: rhesus monkey, read-out: CLH
[2] = Metabolic stability in human liver microsomes assessed as half life at 1 uM in the presence of NADPH measured for 60 mins by LC-MS/MS analysis; format: ADME, Microsome
[3] = Metabolic stability in mouse liver microsomes assessed as intrinsic clearance at 1 uM in the presence of NADPH measured for 60 mins by LC-MS/MS analysis; format: ADME, Microsome; details: read-out: CLH
[4] = Metabolic stability in mouse liver microsomes assessed as parent compound remaining at 1 uM in the presence of NADPH measured after 60 mins by LC-MS/MS analysis; format: ADME, Microsome; details: for remaining at 1 h, 1 µM: liver microsomes, read-out: Stability
[5] = Metabolic stability in human liver microsomes assessed as parent compound remaining at 1 uM in the presence of NADPH measured after 60 mins by LC-MS/MS analysis; format: ADME, Microsome; details: read-out: Stability
[6] = Metabolic stability in human liver microsomes assessed as intrinsic clearance at 1 uM in the presence of NADPH measured for 60 mins by LC-MS/MS analysis; format: ADME, Microsome; details: read-out: CLH
[7] = Metabolic stability in monkey liver microsomes assessed as half life at 1 uM in the presence of NADPH measured for 60 mins by LC-MS/MS analysis; format: ADME, Macaca mulatta, Microsome; details: rhesus monkey
[8] = Metabolic stability in mouse liver microsomes assessed as half life at 1 uM in the presence of NADPH measured for 60 mins by LC-MS/MS analysis; format: ADME, Microsome
[9] = Metabolic stability in monkey liver microsomes assessed as parent compound remaining at 1 uM in the presence of NADPH measured after 60 mins by LC-MS/MS analysis; format: ADME, Macaca mulatta, Microsome; details: rhesus monkey; for remaining at 1 h, 1 µM: liver microsomes, read-out: Stability
[10] = target: T1, Synaptic vesicular amine transporter (Rattus norvegicus, UniProt Q01827); assay: Inhibition of [3H]DTBZ binding to VMAT2 in rat brain incubated for 30 mins by liquid scintillation spectrometry analysis; format: tissue-based
[11] = target: Synaptic vesicular amine transporter (Rattus norvegicus) (UniProt Q01827); assay: Inhibition of [3H]DA uptake at VMAT2 in rat striatal synaptosome at 1 uM incubated for 10 mins followed by [3H]DA addition and measured after 20 mins by TopCount scintillation counting method relative to control; format: subcellular; details: Striatum, time 30.0 min
[12] = target: Synaptic vesicular amine transporter (Rattus norvegicus) (UniProt Q01827); assay: Inhibition of [3H]DA uptake at VMAT2 in rat striatal synaptosome at 0.1 uM incubated for 10 mins followed by [3H]DA addition and measured after 20 mins by TopCount scintillation counting method relative to control; format: subcellular; details: Striatum, time 30.0 min
[13] = target: Voltage-gated inwardly rectifying potassium channel KCNH2 (Homo sapiens, UniProt Q12809); assay: Inhibition of human ERG
[14] = target: T1, Synaptic vesicular amine transporter; assay: Inhibition of [3H]DA uptake at VMAT2 in rat striatal synaptosome incubated for 10 mins followed by [3H]DA addition and measured after 20 mins by TopCount scintillation counting method; format: subcellular, Striatum

Sequence of Synaptic vesicular amine transporter (Rattus norvegicus) (Q01827 whole entry): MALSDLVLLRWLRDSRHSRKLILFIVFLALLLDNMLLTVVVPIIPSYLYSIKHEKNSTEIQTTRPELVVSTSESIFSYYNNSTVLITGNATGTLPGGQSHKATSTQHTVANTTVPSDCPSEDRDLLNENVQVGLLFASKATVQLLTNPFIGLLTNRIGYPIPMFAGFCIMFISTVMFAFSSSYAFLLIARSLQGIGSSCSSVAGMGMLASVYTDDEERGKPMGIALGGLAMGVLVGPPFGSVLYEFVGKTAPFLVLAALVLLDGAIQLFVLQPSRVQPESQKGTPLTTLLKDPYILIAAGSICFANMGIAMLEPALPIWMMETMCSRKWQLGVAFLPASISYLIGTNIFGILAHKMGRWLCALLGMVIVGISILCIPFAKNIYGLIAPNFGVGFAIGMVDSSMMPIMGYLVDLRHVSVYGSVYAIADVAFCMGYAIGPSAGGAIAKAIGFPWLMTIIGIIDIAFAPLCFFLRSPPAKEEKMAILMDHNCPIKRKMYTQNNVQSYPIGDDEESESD
T1 sequence (Q01827 whole entry): as above
Sequence of Voltage-gated inwardly rectifying potassium channel KCNH2 (Q12809 whole entry): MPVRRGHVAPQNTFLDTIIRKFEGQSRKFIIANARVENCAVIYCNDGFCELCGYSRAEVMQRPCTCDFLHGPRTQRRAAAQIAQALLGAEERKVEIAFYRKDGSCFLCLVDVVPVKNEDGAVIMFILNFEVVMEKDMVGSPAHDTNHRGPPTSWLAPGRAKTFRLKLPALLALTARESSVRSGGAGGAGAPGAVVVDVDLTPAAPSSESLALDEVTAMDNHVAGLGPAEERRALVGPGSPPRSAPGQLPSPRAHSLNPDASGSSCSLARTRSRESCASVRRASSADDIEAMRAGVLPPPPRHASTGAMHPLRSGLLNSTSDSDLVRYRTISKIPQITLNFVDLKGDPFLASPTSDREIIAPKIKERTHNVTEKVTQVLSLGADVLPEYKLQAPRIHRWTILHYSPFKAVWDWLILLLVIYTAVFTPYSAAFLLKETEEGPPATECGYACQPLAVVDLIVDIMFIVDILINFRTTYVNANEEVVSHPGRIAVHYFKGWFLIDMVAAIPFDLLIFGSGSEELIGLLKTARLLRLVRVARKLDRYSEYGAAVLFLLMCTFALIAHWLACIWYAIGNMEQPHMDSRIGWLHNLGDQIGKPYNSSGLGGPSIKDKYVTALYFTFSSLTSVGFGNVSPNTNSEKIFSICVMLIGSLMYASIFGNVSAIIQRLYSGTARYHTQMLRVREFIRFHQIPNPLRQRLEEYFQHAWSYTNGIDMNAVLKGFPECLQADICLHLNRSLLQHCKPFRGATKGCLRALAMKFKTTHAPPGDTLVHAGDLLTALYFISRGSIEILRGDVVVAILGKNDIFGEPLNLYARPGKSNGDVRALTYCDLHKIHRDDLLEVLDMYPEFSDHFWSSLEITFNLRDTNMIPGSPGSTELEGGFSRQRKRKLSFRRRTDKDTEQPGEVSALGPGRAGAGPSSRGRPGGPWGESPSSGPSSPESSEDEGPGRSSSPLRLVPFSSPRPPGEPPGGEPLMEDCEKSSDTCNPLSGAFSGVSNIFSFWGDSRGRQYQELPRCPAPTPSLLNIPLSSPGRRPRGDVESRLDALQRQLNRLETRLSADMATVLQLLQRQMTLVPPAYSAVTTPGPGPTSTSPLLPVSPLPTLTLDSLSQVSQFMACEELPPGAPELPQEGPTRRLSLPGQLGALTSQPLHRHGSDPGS

Compound: COc1cc2c(cc1OC)C1CC(=O)C(CC(C)C)CN1CC2 (configuration not stated) [TETRABENAZINE]
CLint scaled at 1 µM [1]: 8.93 L/h/kg
half-life at 1 µM [2]: 32.8 min
CLint scaled at 1 µM [3]: 15.3 L/h/kg
remaining at 1 h, 1 µM [4]: 13.4%
remaining at 1 h, 1 µM [5]: 30.8%
CLint scaled at 1 µM [6]: 4.56 L/h/kg
half-life at 1 µM [7]: 12.6 min
half-life at 1 µM ([8]; liver microsomes): 21.6 min
remaining at 1 h, 1 µM [9]: 10.5%

Compound: CCC1(O)CC2c3cc(OC)c(OC)cc3CCN2CC1CC(C)C (configuration not stated)
inhibition [11]: 81.7%
inhibition [12]: 33.2%
IC50 [10]: > 0.5 µM

Compound: COc1cc2c(cc1OC)[C@H]1C[C@@H](OC(=O)[C@@H](N)C(C)C)[C@H](CC(C)C)CN1CC2 [VALBENAZINE]
IC50 [13]: 1.7 µM

Compound: CCOc1cc2c(cc1OCCCF)C1CC(O)C(CC(C)C)CN1CC2 (configuration not stated)
IC50 [10]: > 0.5 µM

Compound: CCOc1cc2c(cc1OCC1CC1)C1CC(O)C(CC(C)C)CN1CC2 (configuration not stated)
IC50 [10]: > 0.5 µM

Compound: CCCOc1cc2c(cc1OC(C)C)C1CC(O)C(CC(C)C)CN1CC2 (configuration not stated)
IC50 [10]: > 0.5 µM

Compound: COc1cc2c(cc1OC)C1CC(O)(C#N)C(CC(C)C)CN1CC2 (configuration not stated)
inhibition [11]: 93.7%
inhibition [12]: 85%
IC50 [10]: 0.087 µM
IC50 [14]: 0.0279 µM

Now from value to compound:

IC50 [10]: > 0.5 µM
Compound: CCOc1cc2c(cc1OC)CCN1CC(CC(C)C)C(O)CC21 (configuration not stated)

CLint scaled at 1 µM [1]: 7.86 L/h/kg
CLint scaled at 1 µM [3]: 17 L/h/kg
remaining at 1 h, 1 µM [4]: 9.4%
inhibition [11]: 99.9%
inhibition [12]: 99.9%
remaining at 1 h, 1 µM [5]: 66.8%
CLint scaled at 1 µM [6]: 0.864 L/h/kg
IC50 [14]: 0.00572 µM
Stability ([9]; microsomes, 1 h, 1 µM): 23.7%
Compound: CCOc1cc2c(cc1OC)C1CC(O)C(CC(C)C)CN1CC2 (configuration not stated)

CLint scaled at 1 µM [1]: 4.34 L/h/kg
half-life at 1 µM [2]: 128 min
CLint scaled at 1 µM [3]: 31.3 L/h/kg
Stability ([4]; microsomes, 1 h, 1 µM): 22.6%
inhibition [11]: 99.2%
inhibition [12]: 96%
remaining at 1 h, 1 µM [5]: 74.7%
CLint scaled at 1 µM [6]: 1.16 L/h/kg
IC50 [10]: 0.00599 µM
IC50 [14]: 0.0178 µM
half-life at 1 µM [7]: 25.9 min
t1/2 ([8]; microsomes, 1 h, 1 µM): 10.5 min
remaining at 1 h, 1 µM [9]: 17.6%
Compound: COc1cc2c(cc1OCC1CC1)CCN1CC(CC(C)C)C(O)CC21 (configuration not stated)

inhibition [11]: 99.3%
inhibition [12]: 91.2%
IC50 [14]: 0.0352 µM
Compound: CCCOc1cc2c(cc1OC)C1CC(O)C(CC(C)C)CN1CC2 (configuration not stated)

IC50 [10]: 0.0214 µM
Compound: CCOc1cc2c(cc1OCC1CC1)CCN1CC(CC(C)C)C(O)CC21 (configuration not stated)
